Patent US20120165319A1, “INHIBITORS OF INTERLEUKIN-1 BETA CONVERTING ENZYME” (VERTEX PHARMACEUTICALS INCORPORATED, priority 1995, published 2012)

What was measured:
[1] = In vivo bioavailability determination (oral, rat)
Protocol: In Vivo Bioavailability Determination
The drugs (10-100 mg/kg) were dosed orally to rats (10 mL/kg) in ethanol/PEG/water, β-cyclodextrin, labrosol/water or cremophor/water. Blood samples were drawn from the carotid artery at 0.25, 0.50, 1, 1.5, 2, 3, 4, 6, and 8 hours after dosing, centrifuged to plasma and stored at −70° C. until analysis. Aldehyde concentrations were determined using an enzymatic assay. Pharmacokinetic analysis of data was performed by non-linear regression using RStrip (MicroMath Software, UT).

[2] = tested on: male DBA/1J mice, type II collagen-induced arthritis; experiment: Type II collagen-induced arthritis; assay type: in vivo, mouse; conditions: oral gavage twice a day 10, 25 and 50 mg/kg (214e: 50 mg/kg once a day), Arthritis Severity Score, result in words
Protocol: Type II Collagen-Induced Arthritis
Type II collagen-induced arthritis was established in male DBA/1J mice at described Wooley and Geiger (Wooley, P. H., Methods in Enzymology, 162, pp. 361-373 (1988) and Geiger, T., Clinical and Experimental Rheumatology, 11, pp. 515-522 (1993)). Chick sternum Type II collagen ([…] in 10 mM acetic acid) was emulsified with an equal volume of Freund's complete adjuvant (FCA) by repeated passages (400) between two 10 ml glass syringes with a gauge 16 double-hub needle. Mice were immunized by intradermal injection (50 μl; […], CII per mouse) of collagen emulsion 21 days later at the contra-lateral side of the tail base. Drugs were administered twice a day (10, 25 and 50 mg/kg) by oral gavage approximately 7 h apart. Vehicles used included ethanol/PEG/water, β-cyclodextrin, labrosol/water or cremophor/water. Drug treatments were initiated within 2 h of the CII booster immunization. Inflammation was scored on a 1 to 4 scale of increasing severity on the two front paws and the scores are added to give the final score.

[3] = tested on: IL-1β levels in the peritoneal fluid, carrageenan-challenged mice; experiment: Mouse carrageenan peritoneal inflammation; assay type: in vivo; conditions: oral administration; 214e at 50 mg/kg; result in words
Protocol: Mouse Carrageenan Peritoneal Inflammation
Inflammation was induced in mice with an intraperitoneal (IP) injection of 10 mg carrageenan in 0.5 ml of saline (Griswold et al., Inflammation, 13, pp. 727-739 (1989)). Drugs are administered by oral gavage in ethanol/PEG/water, β-cyclodextrin, labrosol/water or cremophor/water vehicle. The mice are sacrificed at 4 hours post carrageenan administration, then injected IP with 2 ml of saline containing 5 U/ml heparin. After gentle massage of the peritoneum, a small incision is made, the contents collected and volume recorded. Samples are kept on ice until centrifuged (130×g, 8 mins at 4° C.) to remove cellular material, and the resultant supernatant stored at −20° C. IL-1β levels in the peritoneal fluid are determined by ELISA.

IL-1β, human PBMC = experiment: Human PBMC assay (Example 27): IL-1β production; assay type: cell-based; conditions: Homo sapiens, PBMC; Table 22; read-out: Cell PBMC avg. IC50
Protocol: Since the processing and secretion of biologically active IGIF is mediated by ICE, we compared the activity of a reversible ICE inhibitor (Ac-YVAD-CHO) on IL-1β and IFN-γ production in a peripheral blood mononuclear cell (PBMC) assay (Examples 27).
Human buffy coat cells were obtained from blood donors and peripheral blood mononuclear cells (PBMC) were isolated by centrifugation in LeukoPrep tubes (Becton-Dickinson, Lincoln Park, N.J.). PBMC were added (3×10^6/well) to 24 well Corning tissue culture plates and after 1 hr incubation at 37° C., non-adherent cells were removed by gently washing. Adherent mononuclear cells were stimulated with LPS (1 μg/ml) with or without ICE inhibitor in 2 ml RPMI-1640-10% FBS. After 16-18 hr incubation at 37° C., IGIF and IFN-γ were quantitated in culture supernatants by ELISA.

ICE = target: T1, ICE (Homo sapiens, UniProt P29466); experiment: Inhibition of IGIF processing by ICE inhibitors, measured in ICE inhibition assays (Example 27, Table 22); assay type: biochemical; conditions: read-out: UV-Visible Ki
T1 sequence (P29466 120-297 limits assumed): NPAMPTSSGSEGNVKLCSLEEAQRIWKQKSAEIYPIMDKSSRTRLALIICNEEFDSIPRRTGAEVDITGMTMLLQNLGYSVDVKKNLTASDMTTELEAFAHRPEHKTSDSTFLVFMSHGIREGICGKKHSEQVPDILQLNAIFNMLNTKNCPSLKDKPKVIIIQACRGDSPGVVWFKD
T1 sequence (P29466 317-404 limits assumed): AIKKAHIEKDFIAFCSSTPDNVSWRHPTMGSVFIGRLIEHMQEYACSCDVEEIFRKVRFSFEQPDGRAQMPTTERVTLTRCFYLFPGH
Protocol: Inhibition of IGIF processing by ICE inhibitors was measured in ICE inhibition assays as described herein (see Example 1 and Table 22).

| Ki (ICE) [nM] | SMILES | blood levels of drug when dosed orally ([1]; oral 10-100 mg/kg, result in words) | Drug Availability ([1]; oral, dose 45 mg/kg) [%] | Cmax ([1]; plasma, oral, dose 45 mg/kg, read-out: Cmax) [ng/mL] | inhibition of inflammation / progression of type II collagen-induced arthritis [2] | inhibition of IL-1β production in carrageenan-challenged mice [3] | IC50 (IL-1β, human PBMC) [nM] |
| --- | --- | --- | --- | --- | --- | --- | --- |
| – | O=C[C@H](CC(=O)O)NC(=O)[C@@H]1CCCN2C(=O)CC[C@H](NC(=O)c3ccccc3)C(=O)N12 [Compound 214e, [3S(1S,9S)]3-(9-Benzoylamino-6,10-dioxo-1,2,3,4,7,8,9,10-octahydro-6H-pyridazino[1,2-a][1,2]-diazepine-1-carboxamido)-4-oxobutanoic acid] | not detected | 0.9 | 200 | did not inhibit inflammation | did not inhibit IL-1β production | – |
| 1.3 | O=C[C@H](CC(=O)O)NC(=O)[C@@H]1CCCN2C(=O)CC[C@H](NC(=O)c3nccc4ccccc34)C(=O)N12 [Compound 412, [3S(1S,9S)]3-[6,10-Dioxo-9-(isoquinolin-1-oylamino)-1,2,3,4,7,8,9,10-octahydro-6H-pyridazino[1,2-a][1,2]diazepine-1-carboxamido]-4-oxobutanoic acid] | – | – | – | – | – | 580 |
